Several values for one entry are separate records, joined by “and”; a condition that tells them apart may be missing. Equal values may be shown once. Toxic doses and inconclusive results are not listed. Where a SMILES comes first, the peptide text is derived from it.
System: B6C3F1 mice, B16 melanoma ip, median survival T/C
Assay: NCI In Vivo Anticancer Drug Screen. Data for tumor model B16 Melanoma (intraperitoneal) in B6C3F1 mice
Conditions: endpoint: median survival time, higher = longer survival
How it was run: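 Mice bearing transplanted tumor were dosed with compound or vehicle, and survival was recorded. Activity is expressed as the treated-group measurement (T) divided by the vehicle control measurement (C).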

[1] = dose: 1.56 mg/kg/injection, schedule: Q01DX009 (ip), vehicle: water
[2] = dose: 3.12 mg/kg/injection, schedule: Q01DX009 (ip), vehicle: water
[3] = dose: 6.25 mg/kg/injection, schedule: Q01DX009 (ip), vehicle: water
[4] = dose: 12.5 mg/kg/injection, schedule: Q01DX009 (ip), vehicle: water
[5] = dose: 400.0 mg/kg/injection, schedule: Q01DX009 (ip), vehicle: saline with Tween-80
[6] = dose: 12.5 mg/kg/injection, schedule: Q01DX009 (ip), vehicle: Klucel (hydroxypropylcellulose) (HPC)
[7] = dose: 25.0 mg/kg/injection, schedule: Q01DX009 (ip), vehicle: Klucel (hydroxypropylcellulose) (HPC)
[8] = dose: 50.0 mg/kg/injection, schedule: Q01DX009 (ip), vehicle: Klucel (hydroxypropylcellulose) (HPC)
[9] = dose: 100.0 mg/kg/injection, schedule: Q01DX009 (ip), vehicle: Klucel (hydroxypropylcellulose) (HPC)
[10] = dose: 6.25 mg/kg/injection, schedule: Q01DX009 (ip), vehicle: saline with Tween-80
[11] = dose: 12.5 mg/kg/injection, schedule: Q01DX009 (ip), vehicle: saline with Tween-80
[12] = dose: 25.0 mg/kg/injection, schedule: Q01DX009 (ip), vehicle: saline with Tween-80
[13] = dose: 50.0 mg/kg/injection, schedule: Q01DX009 (ip), vehicle: saline with Tween-80
[14] = dose: 100.0 mg/kg/injection, schedule: Q01DX009 (ip), vehicle: saline with Tween-80
[15] = dose: 200.0 mg/kg/injection, schedule: Q01DX009 (ip), vehicle: saline with Tween-80
[16] = dose: 50.0 mg/kg/injection, schedule: Q01DX009 (ip), vehicle: saline
[17] = dose: 100.0 mg/kg/injection, schedule: Q01DX009 (ip), vehicle: saline
[18] = dose: 200.0 mg/kg/injection, schedule: Q01DX009 (ip), vehicle: saline
[19] = dose: 12.5 mg/kg/injection, schedule: Q01DX009 (ip), vehicle: saline
[20] = dose: 25.0 mg/kg/injection, schedule: Q01DX009 (ip), vehicle: saline

O=NN(CCCl)C(=O)NCCO
T/C (dose: 1.5 mg/kg/injection, schedule: Q01DX009 (ip), vehicle: water): 102 % of control | T/C [1]: 122 % of control | T/C (dose: 3.0 mg/kg/injection, schedule: Q01DX009 (ip), vehicle: water): 104 % of control | T/C [2]: 189 % of control | T/C (dose: 6.0 mg/kg/injection, schedule: Q01DX009 (ip), vehicle: water): 105 % of control | T/C [3]: 201 % of control | T/C (dose: 12.0 mg/kg/injection, schedule: Q01DX009 (ip), vehicle: water): 109 % of control | T/C [4]: 194 % of control

O=c1[nH]c(=O)n(C2CC(O)C(CO)O2)cc1I (stereo not given)
T/C [5]: 111 % of control

Oc1ccc(OCc2ccccc2)cc1
T/C [6]: 107 % of control and 100 % of control | T/C [7]: 91 % of control and 102 % of control | T/C [8]: 90 % of control and 96 % of control | T/C [9]: 100 % of control and 107 % of control | T/C (dose: 200.0 mg/kg/injection, schedule: Q01DX009 (ip), vehicle: Klucel (hydroxypropylcellulose) (HPC)): 98 % of control [middle of 4 runs] | T/C (dose: 400.0 mg/kg/injection, schedule: Q01DX009 (ip), vehicle: Klucel (hydroxypropylcellulose) (HPC)): 102 % of control and 94 % of control

CCN(CC)CCC(=O)c1ccccc1
T/C (dose: 3.12 mg/kg/injection, schedule: Q01DX009 (ip), vehicle: suspension in saline): 97 % of control | T/C (dose: 6.25 mg/kg/injection, schedule: Q01DX009 (ip), vehicle: suspension in saline): 98 % of control | T/C (dose: 12.5 mg/kg/injection, schedule: Q01DX009 (ip), vehicle: suspension in saline): 104 % of control | T/C (dose: 25.0 mg/kg/injection, schedule: Q01DX009 (ip), vehicle: suspension in saline): 107 % of control | T/C (dose: 50.0 mg/kg/injection, schedule: Q01DX009 (ip), vehicle: suspension in saline): 124 % of control

[N-]=[N+]=CC(=O)CCC(=O)C=[N+]=[N-]
T/C (dose: 1.56 mg/kg/injection, schedule: Q01DX009 (ip), vehicle: DMSO): 124 % of control

O=C(O)CNC(=O)c1ccccc1
T/C (dose: 40.0 mg/kg/injection, schedule: Q01DX009 (ip), vehicle: saline with Tween-80): 96 % of control | T/C (dose: 80.0 mg/kg/injection, schedule: Q01DX009 (ip), vehicle: saline with Tween-80): 95 % of control

COC1=C(OC)C(=O)C(C/C=C(\C)CC/C=C(\C)CC/C=C(\C)CC/C=C(\C)CC/C=C(\C)CC/C=C(\C)CC/C=C(\C)CC/C=C(\C)CC/C=C(\C)CCC=C(C)C)=C(C)C1=O
T/C [10]: 91 % of control | T/C [11]: 97 % of control and 101 % of control | T/C [12]: 93 % of control and 96 % of control | T/C [13]: 97 % of control | T/C [14]: 94 % of control and 98 % of control | T/C [15]: 87 % of control and 90 % of control

Cc1nnc(SCC2=C(C(=O)O)N3C(=O)C(NC(=O)Cn4cnnn4)C3SC2)s1 (stereo not given)
T/C [16]: 91 % of control | T/C [17]: 93 % of control | T/C [18]: 95 % of control

CO[C@H]1C[C@H](O[C@H]2CC[C@@]3(C)[C@H](CC[C@@H]4[C@@H]3CC[C@]3(C)[C@@H](C5=CC(=O)OC5)CC[C@]43O)C2)O[C@H](C)[C@H]1O
T/C (dose: 1.9 mg/kg/injection, schedule: Q01DX009 (ip), vehicle: Klucel (hydroxypropylcellulose) (HPC)): 88 % of control | T/C (dose: 2.8 mg/kg/injection, schedule: Q01DX009 (ip), vehicle: Klucel (hydroxypropylcellulose) (HPC)): 100 % of control | T/C (dose: 4.3 mg/kg/injection, schedule: Q01DX009 (ip), vehicle: Klucel (hydroxypropylcellulose) (HPC)): 102 % of control | T/C (dose: 6.4 mg/kg/injection, schedule: Q01DX009 (ip), vehicle: Klucel (hydroxypropylcellulose) (HPC)): 94 % of control

COC(=O)NC1C(C)OC(OC2C/C=C(/C)C3C=CC4C(OC5CC(OC6CC(O)C(OC7CC(O)C(OC)C(C)O7)C(C)O6)C(O)C(C)O5)C(C)CC(C)C4C3(C)/C(O)=C3\C(=O)OC4(CC(C)C(CO)=CC4/C=C\2C)C3=O)CC1(C)[N+](=O)[O-] (stereo not given)
T/C [6]: 100 % of control and 104 % of control | T/C [7]: 110 % of control and 106 % of control | T/C [8]: 121 % of control

O=C(NC(Cc1ccccc1)C(=O)O)OCc1ccccc1 (stereo not given)
T/C [8]: 99 % of control | T/C [9]: 102 % of control

O=C(O)CNC(=O)CNC(=O)C(Cc1cnc[nH]1)NC(=O)OCc1ccccc1 (stereo not given) (HELM PEPTIDE1{[O=C(OCc1ccccc1)[*:2]].[O=C(C(Cc1c[nH]cn1)N[*:1])[*:2]].G.G}$$$$V2.0)
T/C [14]: 89 % of control | T/C [15]: 91 % of control | T/C [5]: 97 % of control

O=NN(CCF)C(=O)NCCO
T/C (dose: 15.0 mg/kg/injection, schedule: Q01DX001 (ip), vehicle: saline): 181 % of control | T/C (dose: 30.0 mg/kg/injection, schedule: Q01DX001 (ip), vehicle: saline): 221 % of control | T/C (dose: 60.0 mg/kg/injection, schedule: Q01DX001 (ip), vehicle: saline): 250 % of control

Nc1nc(-c2ccc(Cl)cc2)c(Br)c(=O)[nH]1
T/C (dose: 13.0 mg/kg/injection, schedule: Q01DX009 (ip), vehicle: saline with Tween-80): 104 % of control | T/C (dose: 26.0 mg/kg/injection, schedule: Q01DX009 (ip), vehicle: saline with Tween-80): 110 % of control | T/C (dose: 52.0 mg/kg/injection, schedule: Q01DX009 (ip), vehicle: saline with Tween-80): 98 % of control | T/C (dose: 104.0 mg/kg/injection, schedule: Q01DX009 (ip), vehicle: saline with Tween-80): 120 % of control

O=[N+]([O-])c1ccc(N2CCOCC2)c2c1no[n+]2[O-]
T/C [11]: 99 % of control | T/C [12]: 101 % of control | T/C [13]: 98 % of control | T/C [14]: 104 % of control

CC1Oc2cc3c(-c4c(O)cc(O)c5c(O)c6c(cc45)OC(C)C(C)C6=O)c(O)cc(O)c3c(O)c2C(=O)C1C (stereo not given)
T/C (dose: 0.31 mg/kg/injection, schedule: Q01DX009 (ip), vehicle: suspension in saline): 117 % of control | T/C (dose: 0.62 mg/kg/injection, schedule: Q01DX009 (ip), vehicle: suspension in saline): 101 % of control | T/C (dose: 1.25 mg/kg/injection, schedule: Q01DX009 (ip), vehicle: suspension in saline): 109 % of control | T/C (dose: 2.5 mg/kg/injection, schedule: Q01DX009 (ip), vehicle: suspension in saline): 116 % of control

NC(=O)/C=C/c1c[nH]c2nccnc12
T/C [1]: 86 % of control | T/C [2]: 93 % of control | T/C [3]: 95 % of control | T/C [4]: 102 % of control | T/C (dose: 25.0 mg/kg/injection, schedule: Q01DX009 (ip), vehicle: water): 108 % of control

COc1ccc(S(=O)(=O)N/N=C/C(=O)O)cc1
T/C [10]: 101 % of control and 104 % of control | T/C [11]: 116 % of control and 120 % of control | T/C [13]: 119 % of control

NC(Cn1ccc(=O)c(O)c1)C(=O)O (stereo not given)
T/C [19]: 107 % of control | T/C [20]: 111 % of control | T/C [16]: 101 % of control | T/C [17]: 105 % of control | T/C [18]: 105 % of control

CCCCNC(C)[C@]1(O)Cc2c(O)c3c(c(O)c2[C@@H](OC2CC(N)C(O)C(C)O2)C1)C(=O)c1c(OC)cccc1C3=O (stereo not given in full)
T/C (dose: 0.75 mg/kg/injection, schedule: Q01DX009 (ip), vehicle: saline): 162 % of control and 163 % of control | T/C (dose: 1.5 mg/kg/injection, schedule: Q01DX009 (ip), vehicle: saline): 211 % of control and 232 % of control | T/C (dose: 3.0 mg/kg/injection, schedule: Q01DX009 (ip), vehicle: saline): 235 % of control and 333 % of control | T/C (dose: 6.0 mg/kg/injection, schedule: Q01DX009 (ip), vehicle: saline): 229 % of control and 95 % of control

C[n+]1c(-c2cccc(OCCCCCCCOc3cccc(-c4c5cc(N)ccc5c5ccc(N)cc5[n+]4C)c3)c2)c2cc(N)ccc2c2ccc(N)cc21
T/C (dose: 0.02 mg/kg/injection, schedule: Q01DX009 (ip), vehicle: water): 98 % of control | T/C (dose: 0.04 mg/kg/injection, schedule: Q01DX009 (ip), vehicle: water): 109 % of control

CN(C)CCNc1ccc([N+](=O)[O-])c2sc3ccccc3c(=O)c12
T/C [10]: 113 % of control | T/C (dose: 6.25 mg/kg/injection, schedule: Q01DX009 (ip), vehicle: saline): 105 % of control | T/C [11]: 117 % of control and 102 % of control | T/C [19]: 101 % of control | T/C [12]: 118 % of control | T/C [20]: 103 % of control | T/C [16]: 106 % of control

From PubChem BioAssay AID200 (DTP/NCI, 2004)
